Assay results from patent EP3041456B1, “COMPOSITION AND METHOD FOR INDUCING OR STIMULATING GROWTH OF KERATINOUS FIBRES” (priority 2013, dated 2015).

Legend:
[1] = Components of turpentine oil: body and main organ weights, autopsy, histology; type: in vivo, mice; set-up: main organs' weights, Liver / main organs' weights, Spleen / main organs' weights, 2 kidneys / main organs' weights, 2 testicles / main organs' weights, Thymus / main organs' weights, Brain: unit not given here; conditions: 5% in ethanol, 4 weeks; for Total body weight in gram / main organs' weights, 2 kidneys / main organs' weights, 2 testicles / main organs' weights, Brain / main organs' weights, Liver / main organs' weights, Spleen / main organs' weights, Thymus: Mean +/- S.D., 10 mice per group
Source text: (§1) The following commercially available, components of turpentine oil were investigated: • (-) α-pinene; product No 13.127.32 Janssen Chim. 2440 Geel, Belgium • (+) α-pinene; product No 13.126.31 Janssen Chim. 2440, Geel Belgium • (-) β-pinene; product No 15.032.94 Janssen Chim, Geel, Belgium • Turpentine oil crude industrial product was originated from Portugal.
(§2) Young adult, male mice of the N.M.R.I. strain, weighing at the beginning of the experiment +/- 30 g were used, as in previous experiments.
(§3) The protocols used were similar to those described in the previous experiments and study was realized during summer months (July and August). Hair coats were cut along the dorsal surfaces with electric clippers in an area of +/- 6.0 cm^2 two days before treatments. Mice were divided into 4 groups of 10 animals. Each mouse received either • (1) A dose of 0.1 mL of 5% absolute ethanol solution of turpentine oil, • (2) (-) α-pinene, • (3) (+) α-pinene or • (4) (-) β-pinene administered topically on the surface of the shaved skin twice weekly.
(§4) Control groups of the same number and similar age and sex mice were treated the same way but topically applied the solvent alone (absolute ethanol).
(§5) After a 4-week treatment duration all the mice were sacrificed by decapitation, and general autopsies were performed in which skin and main organs specimens were excised and fixed in 10% formalin for histological examination after paraffin embedding and hematoxylin -eosin staining.
(§6) The following evaluating criteria of the observations and results were used: • (1) body and main organ weights, • (2) skin and main organs histological patterns, • (3) semi quantitative evaluation of hair follicles per 1 mm long area in a 5 different areas of the histological sections of the skin of each animal in each group at 100 x microscopic magnification.

hair follicles = experiment: Components of turpentine oil: number of hair follicles after 4-week topical treatment; type: in vivo, mice; conditions: 4 weeks; for Mean number of hair follicles per 1 mm of skin +/- S.D.: 0.1 mL topically twice weekly, 10 mice per group
Source text: as §1, §2, §3, §4, §5, §6

SMILES	Total body weight in gram [1]	main organs' weights, 2 kidneys [1]	main organs' weights, 2 testicles [1]	main organs' weights, Brain [1]	main organs' weights, Liver [1]	main organs' weights, Spleen [1]	main organs' weights, Thymus [1]	Mean number of hair follicles per 1 mm of skin +/- S.D. (hair follicles; 5% in absolute ethanol)	Mean number of hair follicles per 1 mm of skin +/- S.D. (hair follicles; 5% in absolute ethanol, listed as (+) α- pinene)	activity (hair follicles multiplication) compared with the control group (hair follicles; 5% in ethanol)	general toxicity [1]	Mean number of hair follicles per 1 mm of skin +/- S.D. (hair follicles; 5% in absolute ethanol, listed as (-) α- pinene)	mice with more than 50 hair follicles (hair follicles; 5% in absolute ethanol, group of 10 mice)	local skin alteration (clinical signs or microscopic examination) (hair follicles; 5% in ethanol)	Mean number of hair follicles per 1 mm of skin +/- S.D. (hair follicles; 5% in absolute ethanol, listed as (-) β- pinene)	Mean number of hair follicles per 1 mm of skin +/- S.D. (hair follicles; 5% in absolute ethanol, listed as β-pinene)
CC1=CC[C@@H]2C[C@H]1C2(C)C [(+) α-pinene, (1R)-(+)-α-pinene]	40.1 ± 3.73 gram	840 ± 89.7	432 ± 34.9	658 ± 23.8	2834 ± 283.4	390 ± 36.7	266 ± 18.1	28.9 per 1 mm of skin	28.9 ± 6.4 per 1 mm of skin	only slightly superior to the effects of treatment with the solvent lone						
CC1=CC[C@H]2C[C@@H]1C2(C)C [(-) α-pinene, (1S)-(-)-α-pinene]	39.5 ± .42 gram	814 ± 121.7	440 ± 41.8	674 ± 23	2790 ± 449.9	332 ± 24.9	252 ± 22.8	52.6 per 1 mm of skin		more than double	neither any sign of a possible general toxicity	52.6 ± 7.8 per 1 mm of skin	6 out of 10	did not produce any local skin alteration		
C=C1CC[C@H]2C[C@@H]1C2(C)C [(-) β-pinene, (1S)-(-)-β-pinene]										only slightly superior to the effects of treatment with the solvent lone					28.1 ± 7.6 per 1 mm of skin	28.1 per 1 mm of skin
